Where “and” joins values, the source holds several entries; their conditions need not be identical. Equal entries are not always repeated. Where two headings read alike, the source gives them in different places.
Legend:
[1] = tested on: Toxoplasma gondii tachyzoites of the RH strain; test: microbe, parasite or virus in culture; assay type: cell-based
T. gondii tachyzoites [2] = test: Transmission electron microscopy of treated tachyzoites; assay type: cell-based, Toxoplasma gondii; conditions: 48 h
Method: NHDF cultures infected with T. gondii were treated with compounds and fixed with 2.5% glutaraldehyde (EM Grade—Ted Pella Inc., Redding, CA, USA) in 0.1 M sodium cacodylate buffer pH 7.4 (Ted Pella Inc.). Cells were post-fixed with 1% osmium tetroxide, 1.25% potassium ferrocyanide, and 5 mM CaCl2, in 0.1 M sodium cacodylate buffer (pH 7.4). The sample fixation and processing for microscopy were performed as previously described. Samples were dehydrated in alcohol solutions of increasing concentrations (35–100%) and embedded in epoxy resin (Polybed 812, Polysciences). Ultrathin sections were collected in copper grids 300 mesh (Ted Pella Inc.), stained with uranyl acetate and lead citrate, and then observed in a Fei TecNai G2 120 kV Spirit Electron Microscope (FEI Company, Eindhoven, The Netherlands).

[3] = tested on: Toxoplasma gondii tachyzoites of the RH strain; conditions: 7 days of treatment
T. gondii tachyzoites [4] = conditions: read-out: IC50 against T. gondii, cited from earlier work
[5] = Rat; ref Table S3 supplementary refs 3, 10, 12, 21; cited from earlier work
[6] = Rat; ref Table S3 supplementary ref 3; cited from earlier work
[7] = published in vivo studies; ref Table S3; cited from earlier work
T. gondii tachyzoites [8] = test: Immunofluorescence microscopy of treated tachyzoites (aberrant cell division, rhoptry morphology); conditions: 24 h; for Vacuoles with aberrant parasites: […] (250 nM)
Method: Rabbit anti-IMC1 (1:1000) and anti-ARO (1:1000) (kindly provided by Dr. Dominique Soldati, Universite de Geneve, Switzerland) were used to label the mother cell and daughter cell pellicles throughout the endodyogeny process and rhoptries, respectively. Mouse anti-SAG1 (1:200; kindly donated by Dr. Tiago Mineo, Universidade Federal de Uberlândia) was used to label the parasite plasma membrane. DAPI (2 µg/mL; Sigma-Aldrich, St. Louis, MO, USA) was used to label the DNA. […] After labeling with antibodies, the coverslips were mounted onto slides using Prolong gold (Life Technologies), and samples were examined on a Zeiss Axio Observer Z1 microscope (Baden-Württemberg, Germany) or Olympus BX60 microscope (Shinjuku City, Tokyo, Japan).

T. gondii = conditions: in vivo administration, murine model of chronic toxoplasmosis; ref [23],[24]; cited from earlier work
[9] = Human, cited from earlier work; for Plasma concentration (Cmax): ref Table S3 supplementary refs 1, 4, 8, 11, 13, 15, 17, 18, 19, 23, 31; for Cmax: read-out: Plasma concentration (Cmax), ref Table S3 supplementary refs 1, 4, 8, 11, 13, 15, 17, 18, 19, 23
[10] = estimated; ref [66]; cited from earlier work
[11] = tested on: Toxoplasma gondii tachyzoites of the RH strain; test: microbe, parasite or virus in culture; conditions: NHDF, 168 h, read-out: IC50 (μM) in Tachyzoites, RH strain in NHDF cells, plaque assay, 7 days of treatment
[12] = Cytotoxicity assay in NHDF cells (MTS); conditions: human
[13] = read-out: IC50 (μM) in Tachyzoites, RH strain in NHDF cells, plaque assay
[14] = Toxoplasma gondii, 1000 nM, 24 h of treatment, read-out: Proliferation index (%)

Which results are given for COc1ccc(C[C@H]2NC[C@H](O)[C@H]2OC(C)=O)cc1 [(-)-Anisomycin]?
Proliferation index (%) ([1]; 62.5 nM, 24 h of treatment): 60.56%; Proliferation index (%) ([1]; 125 nM, 24 h of treatment): 22.63%; Effect on T. gondii ultrastructure (TEM) (T. gondii tachyzoites [2]; 100 nM): alteration of the ER architecture; IC50 [3, 13]: 0.02 µM; IC50 ([3]; read-out: IC50 against T. gondii proliferation, RH strain): ≤ 0.03 µM; IC50 (T. gondii tachyzoites [4]; 48 h of treatment, ref Fichera, Bhopale, and Ross (1995) [43]): 10 nM; Plasma concentration (Cmax) [5]: 2.75 ng/mL; Does it cross the blood-brain barrier or is found in the brain? [6]: Yes; Brain availability [7]: confirmed; PVs with parasites with aberrant division (T. gondii tachyzoites [8]; 62.5 nM, IMC1 and DAPI labeling): 22.5%; Effect on tachyzoite morphology and cell division (fluorescence microscopy) (T. gondii tachyzoites [8]; 125 nM): complete arrestment of cell division

With C=CCNc1nc(NCC=C)nc(N2CCN(C(c3ccc(F)cc3)c3ccc(F)cc3)CC2)n1 [Almitrine] as the compound, how does the inhibition at 1 µM ([1]; Toxoplasma gondii, 1000 nM, 24 h, read-out: Inhibition of parasite proliferation) read?
The inhibition at 1 µM was 55 to 60%.

And the activity at 1 µM [1, 14]?
Its activity at 1 µM is 44.1%.

And the “Effect on T. gondii ultrastructure (TEM)” value (T. gondii tachyzoites [2]; 1 µM)?
Its value is “induced myelin-like structures”.

And the IC50 [3, 13]?
The IC50 was 0.33 ± 0.04 µM.

What about the IC50 (T. gondii tachyzoites [4]; 72 h of treatment, ref [23],[24]) of the same compound?
The IC50 was 420 nM and 320 nM.

And the “Effect on the number of cysts” value (T. gondii)?
Its value is “reduced the number of cysts”.

And the “Plasma concentration (Cmax)” value [9]?
Its value is 286.2 ng/mL.

And the Cmax [9]?
The Cmax was 599 nM and ≤ 599 nM.

What about the “Vacuoles containing tachyzoites with cell division alteration” value (T. gondii tachyzoites [8]; 1 µM, IMC1 and DAPI labeling) of the same compound?
The value was 23.9%.

Which activity at […] ([1]; Toxoplasma gondii, 250 nM, 24 h of treatment, read-out: Proliferation index (%)) does the source give for CO[C@@H]1[C@H](N(C)C(=O)c2ccccc2)C[C@H]2O[C@]1(C)n1c3ccccc3c3c4c(c5c6ccccc6n2c5c31)C(=O)NC4 [Midostaurin] here?
Its activity at […] is 23.1%.

And the activity at 0.5 µM ([1]; Toxoplasma gondii, 500 nM, 24 h of treatment, read-out: Proliferation index (%))?
Its activity at 0.5 µM is 24.3%.

And the activity at 1 µM [1, 14]?
The activity at 1 µM was 24.9%.

What about the “Effect on T. gondii ultrastructure (TEM)” value (T. gondii tachyzoites [2]; 250 µM as printed) of the same compound?
The value was “drastic effects on the parasite ultrastructure”.

And the “Plasma concentration (Cmax)” value [9]?
Its value is 1210 ng/mL.

And the Cmax [9]?
The Cmax was 2120 nM.

And the Oral bioavailability [10]?
Its Oral bioavailability is greater than 90%.

What about the IC50 [11] of the same compound?
Its IC50 is 0.08 µM.

And the CC50 at 7 days [12]?
The CC50 at 7 days was 240 ± 20 nM.

And the “Vacuoles with aberrant parasites” value (T. gondii tachyzoites [8])?
Its value is “more than 80%”.

What about the “Vacuoles with aberrant parasites” value (T. gondii tachyzoites [8]; listed as midostaurin) of the same compound?
Its value is “around 80%”.
